How the values were obtained:
Type in all cases: cell-based
[1] = test system: 6 DLBCL cell lines (TMD8, U2932, HBL1, OCI-LY-18, WSU-DLCL2, DOHH2); test: Cell cycle analysis and Annexin V staining; settings: 24, 48, 72 h
Description: FIGS. 18A and 18B show apoptosis and cell cycle distribution of TK-216 in DLBCL cell lines. FIG. 18A) Induction of apoptosis in DLBCL cell lines exposed to TK-216 (500 nM) for 24, 48 or 72 hrs. In the figures are shown four representative (two ABC and two GCB) results. FIG. 18B) Cell cycle distribution in DLBCL cell lines treated with 500 nM of TK-216 for 24, 48 or 72 hrs. In the figure, two representative (one ABC and one GCB) results are shown. DMSO treatment was used as a control.
56 lymphoma cell lines [27 diffuse large B cell lymphoma (DLBCL); 10 mantle cell lymphoma; 6 marginal zone lymphoma; 5 anaplastic large T-cell lymphoma; 8 others] were exposed to TK-216 increasing doses for 72 h using a Tecan D300e Digital Dispenser and 384 well plates. Cell proliferation was measured with MTT. In vivo study was done in NOD-SCID mice; treatments were started with approximately sc 60 mm3 tumor volumes. Sensitivity was not affected by the lymphoma cell of origin (B vs T; activated B cell type DLBCL versus germinal center type DLBCL) or MYC and TP53 status. There was a non-statistically significant trend for lower sensitivity in cell lines bearing BCL2 chromosomal translocation (P=0.07, DLBCL only; P=0.06, all cell lines).

TMD-8 = test: 72 hr CellTiter-Glo, DLBCL cell line; settings: Homo sapiens, TMD8
ML-2 = test: 72 hr CellTiter-Glo, AML cell line; settings: Homo sapiens
OCI-Ly18 = test: 72 hr CellTiter-Glo, DLBCL cell line; settings: Homo sapiens

`O=C(CC1(O)C(=O)Nc2c(Cl)ccc(Cl)c21)c1ccc(C2CC2)cc1` (stereo not shown) [TK216, 4,7-Dichloro-3-(2-(4-cyclopropylphenyl)-2-oxoethyl)-3-hydroxyindolin-2-one] was tested. Which “cell cycle and apoptosis” value [1] did it give?
The value was “time-dependent apoptosis was preceded by a G2/M arrest”.

What about the IC50 (TMD-8) of the same molecule?
Its IC50 is 0.152 µM.

What about the IC50 (ML-2) of the same molecule?
The IC50 was 0.291 µM.

What about the IC50 (OCI-Ly18) of the same molecule?
Its IC50 is 0.095 µM.
